Patent US20090247420A1, “METHOD FOR ENCODING AND SCREENING COMBINATORIAL LIBRARIES” (priority 2005, published 2009)

Columns and labels:
[1] = target: T1, ImmunoPure avidin (Pierce) outfitted with xanthone ET-sensitizer (Gallus gallus, UniProt P02701); experiment: Photolytic tag-release binding screen of the tag-encoded model mini-library with avidin-xanthone conjugate in DPC micelles, GCMS detection of released dithiane tags; conditions: for dithiane tags encoding the library member detected in the GCMS chromatogram after the photolytic assay: dithiane-aldehyde adduct tags, 0.7 mM each tagged library member, 23 μM protein, 155 mM DPC, incubated 1 hour, irradiated 4 hours, 335 nm long pass filter, hexane extract
T1 construct: purchased Pierce
T1 sequence (P02701 25-152): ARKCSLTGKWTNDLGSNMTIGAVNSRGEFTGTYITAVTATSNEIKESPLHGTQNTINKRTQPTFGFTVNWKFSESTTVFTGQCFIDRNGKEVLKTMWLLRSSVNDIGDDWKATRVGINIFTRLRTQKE
Method: The receptor, ImmunoPure® avidin (Pierce), was outfitted with xanthone as an ET-sensitizer. The N-hydroxysuccinimide ester of 11-(xanthone-2-carboxamido)undecanoic acid was coupled to avidin in a 20 mM sodium phosphate buffer according to a described procedure (Wilchek, Methods Enzymol), with subsequent purification on a Sephadex G-25 column. […] Tethering the xanthone-based sensitizer to avidin is no different from outfitting a receptor with a fluorophore for the conventional on-the-bead fluorescence-guided assays.
The screening volume was compartmentalized with micellar detergent, dodecyl phosphocholine (DPC), preventing indiscriminant collisional quenching of avidin-tethered xanthone by unbound molecules and thus limiting the ET sensitization exclusively to the bound host-guest complex. Besides the fact that amphiphiles displaying phosphocholine are common in biological settings, utilization of DPC micelles offers a number of additional benefits: (i) it ensures that the screening is always compatible with aqueous media, regardless of aqueous solubility of the tested libraries; (ii) it allows the design of the tagging system to be centered around readily available hydrophobic alkyl dithianes, which can be selectively extracted after irradiation with hexane or other non-polar solvents for unobstructed GCMS analysis; (iii) it spatially segregates the photofragmentation chemistry from molecular recognition, eliminating potential interference between them; (iv) it restricts the photochemistry to the micelle interior improving quantum efficiency of fragmentation, as it is known to increase in the non-polar environment; and, finally, (v) the micelle-assisted design offers an option of solubilizing certain target proteins, which are not water soluble. While not an issue with avidin, this functionality may be important in assaying insoluble membrane proteins, as recognized in the art.
A typical screening procedure involved solubilization of the mini-library, approximately 0.5 mg per tagged compound, in a 0.6 mL aqueous solution containing 60 mg of DPC. To this clear micellar solution 0.5 mL of avidin-xanthone conjugate was added, so the final concentrations were 0.7 mM of each library member carrying one tag (6.3 mM total), 23 μM protein and 155 mM DPC. The micelle-embedded molecules had apparent translational diffusion coefficients of 7×10^−7 cm^2s^−1, as measured with spin-echo pulse field gradient (PFG) ^1H NMR. […] Then the mixture was extracted with 0.5 mL of hexane, concentrated to 100 μL and analyzed by GCMS.
The generality of this approach is not limited to the tagging assemblies based on dithiane-aldehyde adducts. […] None of the other six dithianes were detected in the hexane extract after irradiation. […]

[2] = Benzophenone-sensitized photofragmentation of triazole 22 and its photostability without sensitizer; assay type: physicochemical
Method: To this end 3a was coupled with propargyl amine, providing the acetylenic tagging component S20 for the azide-acetylene click pair. Another readily available tag series was prepared from commercially available acetylenic benzaldehyde as shown in Scheme 12. The Staudinger ligation produces the benzamide linkage, found in compounds 4, 6 and 10, for example. Acetylene-azide click chemistry yields triazoles. […] Triazole 22 was unchanged after prolonged irradiation in the absence of the ET-sensitizer, showing no self-cleavage at wavelengths above 330 nm. This is a critically important finding because premature self-cleavage is detrimental to screening, as it produces false positives.

| SMILES | dithiane tags encoding the library member detected in the GCMS chromatogram after the photolytic assay [1] | dithianes encoding the library member detected in the GCMS trace of the hexane extract after irradiation ([1]; mini-library tagged with nine thio ortho esters (19), three tags per member, DPC micellar solution, avidin-xanthone conjugate) | stability to irradiation (self-cleavage) ([2]; prolonged irradiation in the absence of the ET-sensitizer, wavelengths above 330 nm) | quantum efficiency of methyl dithiane release ([2]; upon benzophenone sensitization, compared with the parent (unsubstituted) benzaldehyde adduct) |
| --- | --- | --- | --- | --- |
| NCCCCCCCCCCC(=O)O [aminoundecanoic acid, 11-aminoundecanoic acid] | not discernible at all | – | – | – |
| N[C@H]1C(O)O[C@H](CO)[C@@H](O)[C@@H]1O (stereo partly drawn) [glucosamine] | not discernible at all | – | – | – |
| O=C(O)CCCC[C@@H]1SC[C@@H]2NC(=O)N[C@@H]21 [biotin] | detected | showed only the dithianes encoding biotin | – | – |
| COC(=O)CCCCCCCCCn1cc(-c2ccc(C(O)C3(C)SCCCS3)cc2)nn1 (stereo not drawn) [compound 22] | – | – | unchanged | very similar to the parent (unsubstituted) benzaldehyde adduct |
